Assay results from patent US20020173551A1 (priority 1998, published 2002).
Where a name gives a salt, the structure may show the parent alone.

How the values were obtained:
[1] = system: genital Herpes Simplex viral infection; assay: Case reports: recurrent genital herpes treated with bupropion; type: in vivo, humans
Text: There were 5-6 recurrences per year. […] The fourth case was patient one, a student with extensive genital herpes. They have had 4 attacks thus far, which have been treated initially with acyclovir and then later with famciclovix. The normal duration of these attacks on these agents was 5-7 days. They were unable to attend classes and took a further 2 weeks before they felt normal. A big feature of their illness is the severe fatigue that precedes and follows their attacks. […] They had not developed any post-[…] fatigue either. They later used a further 2 day course when they felt tingling.

[2] = system: HSV I / herpes labialis (cold sores); assay: Case reports: herpes labialis (cold sores) treated with bupropion; type: in vivo, humans
Text: […] They have approximately 1 episode per month related to menstrual periods. This has been occurring for the last 6 years and has lasted for at least a week of every month. The severity varied according to […] general state of health and stress levels. The outbreaks lasted at least one week and have made a significant impact on their psychological state. They have not been on systemic therapy.
The third case was patient five, a entrepreneur. They have a coffee shop chain. They are thus very visible and they are very self-conscious of even minor blemishes on their face. They have mild herpes labialis (cold sores), which occurs approximately 5 times a year. They have taken intermittent acyelovir and has even considered continuous acyclovir, because of their image.
[…] They had been paying for acyclovir privately, despite the cost, because of their wish to suppress their frequent and unsightly lesions. […] An attack was treated within 24 hours on the two agents.
[…] This involved the nares, upper and lower lips bilaterally. […] Their partner also developed scarlet fever as well. […] It should be noted that this patient is usually very intolerant of medications and tends to vomit easily.
Her normal herpes labialis lasted between 5 and 7 days.

[3] = system: herpes simplex II; assay: Case report: recurrent buttock herpes simplex II; type: in vivo, humans; settings: Example 6, case two
Text: The sixth case was patient two, a reporter. […] This was given for recurrent buttock herpes simplex II, This was ceased and after 1 year, the hypertension and renal impairment reverted to normal.

[4] = Side effects observed in the treated cases; type: in vivo, humans
Text: The sixth case was patient two, a reporter. […] This was given for recurrent buttock herpes simplex II, This was ceased and after 1 year, the hypertension and renal impairment reverted to normal. […] This involved the nares, upper and lower lips bilaterally. Even after topical acyclovir, the course of the illness was 2 weeks of significant outbreak. […] Their partner also developed scarlet fever as well. […] It should be noted that this patient is usually very intolerant of medications and tends to vomit easily.

[5] = system: herpes virus; assay: Overall assessment of the case series against other anti-viral agents; type: in vivo, humans; settings: treatment and prevention of infections caused by the herpes virus
Text: The physician conducting the above trials has reported that the results thus far have been beyond expectation. They are commented that “not only has there been a success from a completely unlikely agent, but there has also been a success beyond that achieved by the well-established anti-viral agents.”

[6] = system: HSV I / herpes labialis (cold sores); assay: Case reports: herpes labialis (cold sores) treated with bupropion; type: in vivo, humans; remark: listed apart in the source
[7] = system: neuronal uptake of noradrenahne (NA); settings: cited from earlier work
[8] = system: neuronal uptake of dopamine (DA); settings: cited from earlier work
[9] = system: monoamine oxidase; settings: cited from earlier work
[10] = Example 1, case gamma, 4 doses of 150 mg over 2 days
[11] = Example 4, case one, 300 mg twice daily for 2 days

CC(NC(C)(C)C)C(=O)c1cccc(Cl)c1 (racemic) [bupropion, (±)-1-(3-chlorophenyl)-2-[(1,1-dimethylethyl)-amino)-1-propanone hydrochloride]
time until the attack was aborted ([1]; Example 1, case gamma, first use of bupropion): ≤ 2 days | outcome of an attack about to commence [1, 10]: aborts the attack completely, or reduces it to a small crop of lesions | time to complete healing of the small crop of lesions [1, 10]: ≤ 48 h | recurrence since commencing the regime ([1]; Example 1, case gamma, over one year): There has not been a single significant recurrence | lesions after treatment [1, 11]: lesions had cleared completely | post-viraemia fatigue [1, 11]: had not developed any post-viraemia fatigue | eruptions after a further course at tingling ([1]; Example 4, case one, further 2 day course): did not develop any eruptions | complete resolution of lesions (day of outbreak) ([2]; Example 2, case four, HSV I cold sores, 300 mg twice daily for 2 days from day 2 of outbreak): ≤ 3 days | minor recurrence one week later ([2]; Example 2, case four, similar dosage): aborted by a similar dosage within the first day | eruptions ([2]; Example 3, case five, 2 tablets of 150 mg when they feel the tingling): has not had an eruption in the last 3 months | outbreak after tingling of the lip ([2]; Example 5, case beta, 150 mg every 12 hours for 2 days, two episodes): No outbreak of herpes labialis occurred | lesion by day 5 ([2]; Example 7, case alpha): hardly noticeable | time after which the lesion started disappearing ([2]; Example 7, case alpha): 3 days | progression of lesions ([2]; Example 7, case three, within 36 hours of taking 300 mg): did not progress from their initial lesion | eruptions ([3]; taken at onset of pre-outbreak symptoms): has not had an eruption since | concurrent scarlet fever ([4]; Example 7, case alpha): did not worsen | side effects ([4]; Example 7, case three, usually very intolerant of medications): No side effects were noticed | comparison with other anti-viral agents such as acydovir and famciclovir [5]: superior to many other anti-viral agents | time until the lesion had dried out ([6]; Example 8, 150 mg twice daily for 2 days): ≤ 24 h | further time until the lesion was scabbing ([6]; Example 8, 150 mg twice daily for 2 days, after drying out): ≤ 12 h | time to complete resolution (later) ([6]; Example 8, 150 mg twice daily for 2 days, after scabbing): 3 days | inhibition of neuronal uptake of noradrenaline [7]: relatively weak inhibitor | inhibition of neuronal uptake of dopamine [8]: relatively weak inhibitor | inhibition of monoamine oxidase [9]: does not inhibit

CC(=O)OCC(CCn1cnc2cnc(N)nc21)COC(C)=O [Famciclovir]
interval between minor outbreaks (approximately once every) ([3]; continuous therapy): 2-3 months | suppression of disease ([3]; continuous therapy): successfully suppressed their disease

Nc1nc2c(ncn2COCCO)c(=O)[nH]1 [acyclovir]
effect in aborting the attacks ([1]; Example 1, case gamma): partially effective | duration of the attacks ([1]; Example 1, case gamma, recurrent genital Herpes Simplex, reduced from 2 weeks): 5 to 7 days | duration of attacks ([2]; Example 3, case five, mild herpes labialis, taken with the tingling): 3 days | severity of attacks ([2]; Example 3, case five, taken with the tingling): barely detectable | lesions during suppressive therapy ([2]; Example 5, case beta, recurrent herpes labialis): breakthrough lesions | course of the illness (significant outbreak) ([2]; Example 7, case three, severe herpes labialis, topical): 2 weeks | adverse effects ([4]; Example 6, case two, given for recurrent buttock herpes simplex II, reverted to normal 1 year after ceasing): developed hypertension and mild renal impairment | effect of topical therapy ([6]; Example 8, medical receptionist, herpes labialis, topical, in the past): unhelpful
